pIC50: −log10 of the molar value.
Legend:
[1] = target: KDR (VEGFR II) (Homo sapiens, UniProt P35968); assay: KDR (VEGFR II) kinase assay; type: biochemical; details: poly-(Glu4Tyr) substrate, 33P-ATP, 10 minutes at room temperature
Description: (§1) KDR (VEGFR II) and Tie2 Assay
(§2) In a microtiter plate (without protein binding!) that tapers to a point, the solutions are mixed in the following sequence:
(§3) 10 μl of substrate mixture
(§4) 10 μl of inhibitor dilution
(§5) 10 μl of enzyme solution.
(§6) It is mixed thoroughly and incubated for 10 minutes at room temperature. Then, 10 μl of the stop solution is added, mixed, and 10 μl of the solution is transferred to a P 81, phosphocellulose filter. It is washed several times in 0.1 M phosphoric acid. The filter paper is dried, coated with Meltilex and measured in a microbeta. The IC50 values are determined from the inhibitor concentration that is necessary to inhibit the phosphate incorporation to 50% of the uninhibited incorporation after removal of the blank reading (EDTA-stopped reaction).
(§7) Substrate solvent: 10 mmol of DTT, 10 mmol of MnCl2, 100 mmol of MgCl2 (DTT slightly oxidized, frozen at −80° C.). Before the test, 1:10 diluted with H2O.
(§8) Enzyme solvent: 120 mmol of TrisCl, pH 7.5; 10 μmol of Na3VO4.
(§9) 10 μl of volume of ATP stock solution A+25 μCi γ-^33P-ATP (about 2.5 μl of stock solution B)+30 μl of poly-(Glu4Tyr) stock solution C+1.21 ml of substrate solvent
(§10) Substances corresponding to the dilutions, 3% DMSO in substrate solvent as a control
(§11) 11.25 μg of the enzyme stock solution (KDR and FLT-1 kinase and Tie2) are diluted at of enzyme solvent (other amounts in the case of other activity!).
(§12) Stop Solution: […] of EDTA, pH 7.0
(§13) Washing Solution: 0.5% phosphoric acid

[2] = target: T1, CDK2/CycE (Homo sapiens, UniProt P24941); assay: CDK2/CycE kinase assay; type: biochemical; details: histone IIIS substrate, 0.5 μm ATP, 15 minutes at 22° C.
T1 construct: GST; purchased Dr. Dieter Marme, Klinik für Tumorbiologie, Freiburg (obtained from an outside laboratory, not a commercial vendor); host or cells: baculovirus-infected insect cells (Sf9)
Description: Recombinant CDK2- and CycE-GST-fusion proteins, purified from baculovirus-infected insect cells (Sf9), were obtained by Dr. Dieter Marme, Klinik für Tumorbiologie [Clinic for Tumor Biology], Freiburg. Histone IIIS, which was used as a kinase substrate, was purchased by the Sigma Company.
CDK2/CycE (50 ng/measuring point) was incubated for 15 minutes at 22° C. in the presence of various concentrations of test substances (0 μm, as well as within the range of 0.01-100 μm) in assay buffer [50 mmol of tris/HCl pH 8.0, 10 mmol of MgCl2, 0.1 mmol of Na ortho-vanadate, 1.0 mmol of dithiothreitol, 0.5 μm of adenosine triphosphate (ATP), 10 μg/measuring point of histone IIIS, 0.2 μCi/measuring point of ^33P-gamma ATP, 0.05% NP40, 12.5% dimethyl sulfoxide]. The reaction was stopped by adding EDTA solution (250 mmol, pH 8.0, 14 μl/measuring point).
From each reaction batch, 10 μl was applied to P30 filter strips (Wallac Company), and non-incorporated ^33P-ATP was removed by subjecting the filter strips to three washing cycles for 10 minutes each in 0.5% phosphoric acid. After the filter strips were dried for one hour at 70° C., the filter strips were covered with scintillator strips (MeltiLex™ A, Wallac Company) and baked for one hour at 90° C. The amount of incorporated ^33P (substrate phosphorylation) was determined by scintillation measurement in a gamma-radiation measuring device (Wallac).

[3] = target: Tie2 (Homo sapiens, UniProt Q02763); assay: Tie2 kinase assay; type: biochemical; details: poly-(Glu4Tyr) substrate, 33P-ATP, 10 minutes at room temperature; read-out: Tie 2 IC50
Sequence of Tie2 (Q02763 23-1124, species assumed): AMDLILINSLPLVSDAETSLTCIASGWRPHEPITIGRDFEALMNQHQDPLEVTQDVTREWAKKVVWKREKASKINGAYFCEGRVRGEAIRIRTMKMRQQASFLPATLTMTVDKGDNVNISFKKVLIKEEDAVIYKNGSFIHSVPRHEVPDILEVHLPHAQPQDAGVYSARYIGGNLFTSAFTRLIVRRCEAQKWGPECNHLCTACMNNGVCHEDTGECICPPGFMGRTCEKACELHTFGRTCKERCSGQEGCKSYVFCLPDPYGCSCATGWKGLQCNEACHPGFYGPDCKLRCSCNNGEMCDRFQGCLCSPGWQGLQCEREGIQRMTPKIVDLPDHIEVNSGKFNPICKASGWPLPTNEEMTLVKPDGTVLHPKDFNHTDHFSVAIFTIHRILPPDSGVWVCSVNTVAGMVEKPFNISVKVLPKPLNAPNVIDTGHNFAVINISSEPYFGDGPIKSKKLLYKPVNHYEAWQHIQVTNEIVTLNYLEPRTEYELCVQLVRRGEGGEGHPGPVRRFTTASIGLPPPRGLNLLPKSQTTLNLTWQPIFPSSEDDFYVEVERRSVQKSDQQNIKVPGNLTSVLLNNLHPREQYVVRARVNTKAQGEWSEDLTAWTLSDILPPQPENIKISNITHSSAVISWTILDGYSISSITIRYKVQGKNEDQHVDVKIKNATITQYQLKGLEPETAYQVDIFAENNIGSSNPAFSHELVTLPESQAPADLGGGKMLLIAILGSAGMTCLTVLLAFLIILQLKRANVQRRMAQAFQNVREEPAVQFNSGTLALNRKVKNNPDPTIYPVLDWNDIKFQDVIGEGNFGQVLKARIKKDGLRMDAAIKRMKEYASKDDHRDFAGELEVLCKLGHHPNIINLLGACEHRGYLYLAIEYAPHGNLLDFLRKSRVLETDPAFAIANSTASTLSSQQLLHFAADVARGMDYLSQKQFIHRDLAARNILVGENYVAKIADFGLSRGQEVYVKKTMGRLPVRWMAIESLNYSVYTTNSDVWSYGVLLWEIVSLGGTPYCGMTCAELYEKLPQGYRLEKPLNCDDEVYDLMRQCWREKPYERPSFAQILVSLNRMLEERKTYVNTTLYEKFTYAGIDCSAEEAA
Description: as §1, §2, §3, §4, §5, §6, §7, §8, §9, §10, §11, §12, §13

[4] = tested on: human MCF7 tumor cells; assay: Proliferation assay (crystal violet); type: cell-based; details: 96 h, 4 days incubation, read-out: MCF-7 IC50
Description: Cultivated human MCF7 tumor cells were flattened out at a density of 5000 cells/measuring point in a 96-well multititer plate in 200 μl of the corresponding growth medium. After 24 hours, the cells of one plate (zero-point plate) were colored with crystal violet (see below), while the medium of the other plates was replaced by fresh culture medium (200 μl), to which the test substances were added in various concentrations (0 μm, as well as in the range of 0.01-30 μm; the final concentration of the solvent dimethyl sulfoxide was 0.5%). The cells were incubated for 4 days in the presence of test substances. The cell proliferation was determined by coloring the cells with crystal violet: the cells were fixed by adding 20 μl/measuring point of an 11% glutaric aldehyde solution for 15 minutes at room temperature. After three washing cycles of the fixed cells with water, the plates were dried at room temperature. The cells were colored by adding 100 μl/measuring point of a 0.1% crystal violet solution (the pH was set at 3 by adding acetic acid). After three washing cycles of the colored cells with water, the plates were dried at room temperature. The dye was dissolved by adding 100 μl/measuring point of a 10% acetic acid solution. The extinction was determined by photometry at a wavelength of 595 nm. The change of cell growth, in percent, was calculated by standardization of the measured values to the extinction values of the zero-point plate (=0%) and the extinction of the untreated (0 μm) cells (=100%).

Sequence of KDR (VEGFR II) (P35968 20-1356, species assumed): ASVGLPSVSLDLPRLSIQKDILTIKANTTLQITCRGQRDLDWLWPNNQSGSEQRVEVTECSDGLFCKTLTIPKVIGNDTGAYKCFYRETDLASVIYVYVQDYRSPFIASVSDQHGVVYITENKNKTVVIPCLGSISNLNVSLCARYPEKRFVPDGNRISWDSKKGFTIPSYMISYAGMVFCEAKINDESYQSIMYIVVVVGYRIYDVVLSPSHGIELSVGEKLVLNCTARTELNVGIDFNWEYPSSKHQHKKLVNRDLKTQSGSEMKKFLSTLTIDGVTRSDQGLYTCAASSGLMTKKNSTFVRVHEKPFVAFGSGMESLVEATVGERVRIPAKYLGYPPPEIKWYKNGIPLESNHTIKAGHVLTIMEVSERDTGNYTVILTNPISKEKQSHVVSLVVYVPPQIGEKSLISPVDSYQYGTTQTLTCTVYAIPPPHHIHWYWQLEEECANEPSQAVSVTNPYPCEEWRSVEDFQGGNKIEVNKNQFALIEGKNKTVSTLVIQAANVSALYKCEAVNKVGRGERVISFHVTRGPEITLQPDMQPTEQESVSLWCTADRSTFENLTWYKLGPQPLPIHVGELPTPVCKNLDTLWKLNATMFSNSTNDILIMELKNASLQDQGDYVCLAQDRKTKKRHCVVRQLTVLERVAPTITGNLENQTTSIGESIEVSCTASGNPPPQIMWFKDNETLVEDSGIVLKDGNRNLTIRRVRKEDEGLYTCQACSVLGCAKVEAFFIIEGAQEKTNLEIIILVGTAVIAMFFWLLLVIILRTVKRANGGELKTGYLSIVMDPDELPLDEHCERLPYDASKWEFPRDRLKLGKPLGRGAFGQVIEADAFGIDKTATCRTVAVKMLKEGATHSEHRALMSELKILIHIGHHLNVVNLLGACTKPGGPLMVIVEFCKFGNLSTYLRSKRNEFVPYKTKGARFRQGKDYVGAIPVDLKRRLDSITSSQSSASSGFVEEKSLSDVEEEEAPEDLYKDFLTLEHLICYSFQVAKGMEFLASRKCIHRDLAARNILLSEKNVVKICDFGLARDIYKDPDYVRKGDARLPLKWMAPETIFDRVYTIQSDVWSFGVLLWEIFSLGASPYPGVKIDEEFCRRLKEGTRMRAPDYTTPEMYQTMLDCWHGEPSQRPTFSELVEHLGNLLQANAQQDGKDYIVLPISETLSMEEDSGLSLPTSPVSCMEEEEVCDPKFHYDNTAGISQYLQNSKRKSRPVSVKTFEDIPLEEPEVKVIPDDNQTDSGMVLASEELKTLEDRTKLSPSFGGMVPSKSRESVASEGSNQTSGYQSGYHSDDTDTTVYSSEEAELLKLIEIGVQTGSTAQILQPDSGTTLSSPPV

pIC50 [1]	melting point [°C]	pIC50 [2]	pIC50 [3]	pIC50 [4]	SMILES
8.00	247	6.40	< 6.00	5.70	Nc1nc(Nc2cccnc2)nn1-c1ccc2ccccc2c1 [Example 5]
–	278	–	–	–	Nc1nc(Nc2nccc3ccccc23)nn1-c1ccccn1 [Example 18]
–	191	–	–	–	Cc1ccc(Nc2nc(N)n(-c3ccccn3)n2)c(C)n1 [Example 21]
7.70	225	6.10	6.30	5.40	Nc1nc(Nc2cnc3ccccc3c2)nn1-c1ccccn1 [Example 10]
–	223	–	–	–	Nc1nc(Nc2cccnc2)nn1-c1ccccc1 [Example 8]
–	193	–	–	–	Nc1nc(Nc2cnccc2Cl)nn1-c1ccccn1 [Example 20]
6.70	254	5.70	< 6.00	5.40	Nc1nc(Nc2cccnc2)nn1-c1ccc(C(F)(F)F)cn1 [Example 6]
7.30	237	6.00	6.30	< 5.00	COc1ccc(Nc2nc(N)n(-c3ccccn3)n2)cn1 [Example 9]
–	–	–	–	5.82	Nc1nc(Nc2cccnc2)nn1-c1ccccn1 [Example 1, 5-Amino-1-(2-pyridinyl)-3-(3-pyridinylamino)-1H-1,2,4-triazole]
7.70	287	5.55	–	–	Nc1nc(Nc2cncc3ccccc23)nn1-c1ccccn1 [Example 16]
7.52	255	5.22	< 6.00	5.22	Nc1nc(Nc2cccnc2)nn1-c1ncccc1C(F)(F)F [Example 4]
–	249	–	–	–	Nc1nc(Nc2cnc3ccccc3c2)nn1-c1ccc2ccccc2n1 [Example 12]
8.00	212	5.70	< 6.00	< 5.00	Cc1cc(C(F)(F)F)cc(-n2nc(Nc3cccnc3)nc2N)n1 [Example 3]
–	234	–	–	–	Nc1nc(Nc2cccnc2)nn1-c1cccnc1 [Example 7]
7.70	246	6.70	6.30	6.15	Nc1nc(Nc2cccnc2)nn1-c1nccc2ccccc12 [Example 13]
–	169	–	–	–	COc1ncccc1Nc1nc(N)n(-c2ccccn2)n1 [Example 11]
–	326	–	–	–	Nc1nc(Nc2ccc3ccccc3n2)nn1-c1ccccn1 [Example 19]
7.52	253	6.30	< 6.00	5.82	Nc1nc(Nc2cnc3ncccc3c2)nn1-c1ccccn1 [Example 17]
7.40	285	6.52	6.30	5.96	Nc1nc(Nc2cncc(Br)c2)nn1-c1ccccn1 [Example 15]
–	159	–	–	–	COc1ccc(Nc2nc(N)n(-c3ccccn3)n2)c(OC)n1 [Example 14]
